Assay results from patent US20110158944A1, “BRAF BIOMARKERS” (priority 2007, published 2011).
pIC50: −log10 of the molar value. Like-named read-outs stand apart in the source and are kept apart here.

Key:
Experiment in all cases: Cell proliferation IC50 (Cell Titer Glo)
Type in all cases: cell-based
[1] = tested on: TT; conditions: Homo sapiens, 96 h, Thyroid, BRAF V600V Wild type, 4 days continuous exposure
Protocol: (§1) IC50 Cell proliferation measurements. Cell proliferation was assessed in the 41 tumor cell lines set forth in Table 2 after 4 days of continuous exposure to either the ERK1/2 inhibitor, compound a or the MEK inhibitor compound b (PD0325901) using Promega Cell Titer Glo reagent (Promega Corp, Madison, Wis.). Promega's CellTiter-Glo™ Luminescent Cell Viability Assay is a sensitive method for assaying cell proliferation using a stable form of luciferase to measure ATP as an indicator of viable cells. This reagent allows a homogeneous method of determining cell number by quantitation of ATP. The luciferase luminescent signal produced is proportional to the number of viable cells present in culture.
(§2) A 1000× compound dose response curve, containing 8 dilutions of each compound, was prepared on a 96-well plate. Compounds were diluted in 100% DMSO to the following (1000×) concentrations: compound b: 1000 μM, 333 μM, 111 μM, 37 μM, 12 μM, 4.1 μM, 1.4 μM and 0.5 μM; compound a: 3000 μM, 1000 μM, 333 μM, 111 μM, 37 μM, 12 μM, 4.1 μM and 1.4 μM. This compound source plate was sealed and kept frozen between uses.
(§3) Cells were grown in RPMI 1640 medium supplemented with 10% Fetal Bovine Serum, 2 mM Glutamine and non-essential amino acids or DMEM/F12 Media containing the same supplements. On day zero, cells were trypsinized, counted and plated into wells of a 96-well Wallac TC Isoplate (Perkin-Elmer Wallac, Gaithersburg, Md.) at a density of 1500-2000 cells per well in 50 μl of complete media. An additional 6-8 replicate well of the cells at the same density were plated on a separate Wallac TC Isoplate. This plate was developed on day 1 to determine the cell-growth baseline.
(§4) On day 1 of treatment, compound was diluted to 2× in media and immediately added to the cells as follows: one ml of media was added to each well of a deep-well 96-well plate and 2 μl of 1000× compound was added with mixing to make 2× compound in media. 50 μl of the media containing 2× compound was added to the cell plates in duplicate points so the final concentrations for each well were as outlined in Table 1. The plates were then returned to a 37° C. incubator and left undisturbed for 4 days. The day 1 (baseline) plates were developed by first adding 50 μl media (without compound) to bring the volume in each well to 100 μl, then adding 100 μl of Cell Titer Glo reagent (as below).
(§5) After four days of treatment, the plates were developed with Cell Titer Glo (CTG) reagent (Promega Corp.; Madison, Wis.). Reagent was reconstituted as described in the product insert. 100 μl of reagent was added to all treatment and control wells and the plates were gently shaken for 5 minutes then incubated an additional 5 minutes before reading in an Analyst AD (Molecular Devices Corporation; Sunnyvale, Calif.) using the Luminescence settings.
(§6) Data was analyzed in Excel using XLfit 4.2, fit model #205 (Dose Response One Site)

[2] = tested on: HT-144; conditions: Homo sapiens, read-out: IC50 cell proliferation
Protocol: as §1, §2, §3, §4, §5, §6

[3] = tested on: SK-Mel3; conditions: Homo sapiens, read-out: IC50 cell proliferation
Protocol: as §1, §2, §3, §4, §5, §6

[4] = tested on: Hs746T; conditions: Homo sapiens, 96 h, read-out: IC50 cell proliferation
Protocol: as §1, §2, §3, §4, §5, §6

[5] = tested on: SNU-16; conditions: Homo sapiens, read-out: IC50 cell proliferation
Protocol: as §1, §2, §3, §4, §5, §6

[6] = tested on: Jurkat; conditions: Homo sapiens, 96 h, read-out: IC50 cell proliferation
Protocol: as §1, §2, §3, §4, §5, §6

[7] = tested on: SK-Mel-1; conditions: Homo sapiens, read-out: IC50 cell proliferation
Protocol: as §1, §2, §3, §4, §5, §6

[8] = tested on: ES-2; conditions: Homo sapiens, read-out: IC50 cell proliferation
Protocol: as §1, §2, §3, §4, §5, §6

[9] = tested on: RPMI-7951; conditions: Homo sapiens, read-out: IC50 cell proliferation
Protocol: as §1, §2, §3, §4, §5, §6

[10] = tested on: HT-29; conditions: Homo sapiens, read-out: IC50 cell proliferation
Protocol: as §1, §2, §3, §4, §5, §6

[11] = tested on: U-937; conditions: Homo sapiens, read-out: IC50 cell proliferation
Protocol: as §1, §2, §3, §4, §5, §6

[12] = tested on: Hs294T; conditions: Homo sapiens, Hs 294T, 96 h, read-out: IC50 cell proliferation
Protocol: as §1, §2, §3, §4, §5, §6

[13] = tested on: M14; conditions: Homo sapiens, read-out: IC50 cell proliferation
Protocol: as §1, §2, §3, §4, §5, §6

[14] = tested on: Malme 3M; conditions: Homo sapiens, 96 h, read-out: IC50 cell proliferation
Protocol: as §1, §2, §3, §4, §5, §6

[15] = tested on: Caki-1; conditions: Homo sapiens, read-out: IC50 cell proliferation
Protocol: as §1, §2, §3, §4, §5, §6

[16] = tested on: Hs695T; conditions: Homo sapiens, Hs 695T, 96 h, read-out: IC50 cell proliferation
Protocol: as §1, §2, §3, §4, §5, §6

For O=C(Nc1ccc2[nH]nc(-c3ccncc3)c2c1)C1CCN(CC(=O)N2CCN(c3ccc(-c4ncccn4)cc3)CC2)C1 (centres unmarked) [cpd. a], the pIC50 [1] was 6.39, the pIC50 ([2]; 96 h, HT-144, Melanoma, BRAF V600E Homozygous, 4 days continuous exposure) was 7.22 and the pIC50 ([3]; 96 h, SK-Mel3, Melanoma, BRAF V600E Heterozygous, 4 days continuous exposure) was 6.93. The pIC50 ([4]; Gastric, BRAF V600V Wild type, 4 days continuous exposure) was 6.90, the pIC50 ([5]; 96 h, SNU-16, Gastric, BRAF V600V Wild type, 4 days continuous exposure) was < 5.52 and the pIC50 ([6]; Leukemia, BRAF V600V Wild type, 4 days continuous exposure) was < 5.52. For the same compound, the pIC50 ([7]; 96 h, SK-Mel-1, Melanoma, BRAF V600E Heterozygous, 4 days continuous exposure) was 7.43, the pIC50 ([8]; 96 h, ES-2, Ovarian, BRAF V600E Heterozygous, 4 days continuous exposure) was 5.58 and the pIC50 ([9]; 96 h, RPMI-7951, Melanoma, BRAF V600E Heterozygous, 4 days continuous exposure) was 6.46. For the same compound, the pIC50 ([10]; 96 h, HT-29, Colon, BRAF V600E Heterozygous, 4 days continuous exposure) was 7.30, the pIC50 ([11]; 96 h, U-937, Leukemia, BRAF V600V Wild type, 4 days continuous exposure) was < 5.52 and the pIC50 ([12]; Hs294T, Melanoma, BRAF V600E Heterozygous, 4 days continuous exposure) was 5.76. For the same compound, the pIC50 ([13]; 96 h, M14, Melanoma, BRAF V600E Homozygous, 4 days continuous exposure) was 7.40, the pIC50 ([14]; Malme 3M, Melanoma, BRAF V600E Homozygous, 4 days continuous exposure) was 8.00 and the pIC50 ([15]; 96 h, Caki-1, Renal, BRAF V600V Wild type, 4 days continuous exposure) was 6.35. For the same compound, the pIC50 ([16]; Hs695T, Melanoma, BRAF V600E Heterozygous, 4 days continuous exposure) was 6.78.
O=C(NOC[C@H](O)CO)c1ccc(F)c(F)c1Nc1ccc(I)cc1F [cpd. b, PD0325901] showed a pIC50 [1] of 6.59, a pIC50 ([2]; HT-144, 96 h) of 8.00 and a pIC50 ([3]; SK-MEL3, 96 h) of 8.10. It also gave a pIC50 [4] of 8.15, a pIC50 ([5]; SNU-16, 96 h) of 6.00 and a pIC50 [6] of 6.00. For the same compound, the pIC50 ([7]; SK-MEL-1, 96 h) was 8.52, the pIC50 ([8]; ES-2, 96 h) was 6.00 and the pIC50 ([9]; RPMI-7951, 96 h) was 7.16. For the same compound, the pIC50 ([10]; HT-29, 96 h) was 7.70, the pIC50 ([11]; U-937, 96 h) was 6.00 and the pIC50 [12] was 7.15. It also gave a pIC50 ([13]; M14, 96 h) of 8.52, a pIC50 ([14]; Malme-3M) of 8.00 and a pIC50 ([15]; CAKI-1, 96 h) of 6.74. The pIC50 [16] was 7.54.
